Reference: patent US20240350655A1, “THIOL-CONJUGATION WITH UNSATURATED PHOSPHORUS(V) COMPOUNDS” (FORSCHUNGSVERBUND BERLIN E.V., priority 2021, published 2024)

What was measured:
eGFP C70M S147C [1] = molecular target: T1, eGFP C70M S147C (Aequorea victoria, UniProt P42212, C70M/F64L/H231L/S147C/S65T); test: Tandem-mass spectrometry of tryptically digested labelled eGFP; settings: 10 eq. phosphinate, PBS pH 7.4, 10% DMSO
T1 construct: protease cleavage site highlighted with subscripts; His-tag (N); protease cleavage site (N); made in house
T1 sequence (P42212 with tags, fused parts or gaps F64L/S65T/C70M/S147C/H231L): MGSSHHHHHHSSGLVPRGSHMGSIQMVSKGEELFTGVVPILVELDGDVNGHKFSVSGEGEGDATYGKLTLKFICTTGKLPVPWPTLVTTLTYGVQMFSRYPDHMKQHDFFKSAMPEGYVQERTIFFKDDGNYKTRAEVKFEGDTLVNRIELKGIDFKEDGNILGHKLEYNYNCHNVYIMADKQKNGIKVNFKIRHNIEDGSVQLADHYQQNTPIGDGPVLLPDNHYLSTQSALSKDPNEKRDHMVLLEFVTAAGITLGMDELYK
Experimental: At first phosphinate-1 was reacted with an eGFP mutant containing a single addressable Cys (eGFP C70M S147C). Using 10 eq. phosphinate in PBS pH 7.4 containing 10% DMSO as a co-solvent, the reaction reached completion after 30 minutes (FIG. 5d).
1 in PBS (30 min, r.t.) followed by purification via 0.5 mL Zeba™ Spin Desalting Columns with 7K MWCO (Thermo Fisher Scientific, USA) into phosphate-buffer (20 mM, pH 7.5). Complete labeling was verified via intact-protein MS.

eGFP C70M S147C [2] = molecular target: T1, eGFP C70M S147C; test: Second-order rate constant of the reaction with eGFP, intact protein-MS; settings: one equivalent GFP, Tris-buffer (pH 8.3), 90 μM, room-temperature
Experimental: Subsequently, this new compound-class was compared with other Cys-reactive electrophiles in terms of reaction kinetics. The estimation of reaction-kinetics is particularly challenging for bis-reactive reagents because the second thiol addition interferes with the analysis. […] Consequently, 2 was reacted with one equivalent GFP in Tris-buffer (pH 8.3) at a concentration of 90 μM at room-temperature.
Determination of the second-order rate constant of the reaction between eGFP (C70M S147C) and phosphinate 2. […] Reactions were carried out in triplicate. 90 μl eGFP (0.1 mM) were mixed with 10 μl of a 0.9 mM solution of phosphinate 2 in DMSO. Samples were drawn after 60, 90, 150, 210 and 300 minutes and analyzed via intact protein-MS. […] Calculated by the intensity of the deconvoluted mass in relation to the internal standard eGFP (C70M). […] The slope corresponds to the second order rate constant. Shown are mean and error of three independent measurements.

[3] = Second-order rate constant of the reaction with glutathione, fluorescent HPLC; settings: 1 eq. glutathione (0.5 mM), 50 mM ABC buffer, 1 mM EDTA, pH 8.5
Experimental: The second-order rate constant of the reaction between glutathione and EDANS-phosphinates CS265 and CS266 was determined according to the following procedure: The EDANS-phosphinate was reacted with 1 eq. of glutathione (0.5 mM) in the presence of 50 mM ABC buffer (ammonium bicarbonate buffer) and 1 mM EDTA at pH 8.5. The reactions were performed in a volume of 0.1 ml. The first sample (t=0) was drawn before the addition of glutathione. Samples were taken after 1, 2, 5, 12, 22 and 35 min (CS266) or after 30, 60, 120, 240 and 1440 min (CS265). Samples were drawn in a volume of 10 μl and immediately diluted into 200 μl of 50 mM NaOAc buffer at pH 3.5, to stop the reaction. Those samples were subjected to fluorescent HPLC analyses, injecting 50 μl each.

C#CP(=O)(C#C)OCC [compound 1, ethyl diethynyl phosphinate]
amino acids modified (MS/MS) (eGFP C70M S147C [1]): no amino acid other than Cys was modified

C#CCCOP(=O)(C#C)C#C [compound 2, but-3-yn-1-yl-diethynylphosphinate]
second-order rate constant (eGFP C70M S147C [2]): ~0.47 M⁻¹ s⁻¹

C#CP(=O)(OCC)c1cn(CCC(=O)NCCNc2cccc3c(S(=O)(=O)O)cccc23)nn1 (stereo not drawn) [CS266, EDANS-1,2,3-triazol-ethyl-ethynylphosphinate]
reaction kinetics relative to CS265 [3]: roughly ten times faster than with CS265
